Assay results as given in ChEMBL document CHEMBL4673355, “Thiacalixarene based quaternary ammonium salts as promising antibacterial agents” (Bioorg Med Chem, 2021).
Values joined by “and” are separate entries in the source; they are usually repeats but may differ in a detail not shown here. Identical values can stand only once.

Legend:
Enterococcus faecalis = experiment: Antibacterial activity against Enterococcus faecalis ATCC 29212 by CLSI broth microdilution method; assay type: functional
[1] = Antibacterial activity against […] resistant Moraxella sp.765 clinical isolate assessed as reduction in bacterial growth incubated for 24 hrs by CLSI broth microdilution method; assay type: functional; conditions: Moraxella catarrhalis
Proteus sp. = experiment: Antibacterial activity against […] resistant Proteus sp. clinical isolate 17 assessed as reduction in bacterial growth incubated for 24 hrs by CLSI broth microdilution method; assay type: functional; conditions: Proteus sp. (in: enterobacteria)
Staphylococcus aureus [2] = experiment: Antibacterial activity against methicillin- resistant Staphylococcus aureus 2020 clinical isolate assessed as reduction in bacterial growth incubated for 24 hrs by CLSI broth microdilution method; assay type: functional
Pseudomonas aeruginosa [3] = experiment: Antibacterial activity against Pseudomonas aeruginosa ATCC 27853 assessed as reduction in bacterial growth incubated for 24 hrs by CLSI broth microdilution method; assay type: functional
Klebsiella pneumoniae [4] = experiment: Antibacterial activity against Klebsiella pneumoniae ATCC 1813 assessed as reduction in bacterial growth incubated for 24 hrs by CLSI broth microdilution method; assay type: functional
Staphylococcus aureus [5] = experiment: Antibacterial activity against methicillin- resistant Staphylococcus aureus 25 clinical isolate assessed as reduction in bacterial growth incubated for 24 hrs by CLSI broth microdilution method; assay type: functional
Staphylococcus aureus [6] = experiment: Antibacterial activity against methicillin- resistant Staphylococcus aureus 983 clinical isolate assessed as reduction in bacterial growth incubated for 24 hrs by CLSI broth microdilution method; assay type: functional
Pseudomonas = experiment: Antibacterial activity against methicillin- resistant Pseudomonas spp. clinical isolate 6 assessed as reduction in bacterial growth incubated for 24 hrs by CLSI broth microdilution method; assay type: functional
Escherichia coli [7] = experiment: Bactericidal activity against Escherichia coli ATCC 25922 assessed as reduction in bacterial growth incubated for 24 hrs followed by replating on MH broth and further incubated for 24 hrs by CLSI broth microdilution method; assay type: functional
[8] = Antibacterial activity against […] resistant Moraxella sp.829 clinical isolate assessed as reduction in bacterial growth incubated for 24 hrs by CLSI broth microdilution method; assay type: functional; conditions: Moraxella catarrhalis
Staphylococcus aureus [9] = experiment: Antibacterial activity against Staphylococcus aureus ATCC 29213 assessed as reduction in bacterial growth incubated for 24 hrs by CLSI broth microdilution method; assay type: functional
Klebsiella pneumoniae [10] = experiment: Bactericidal activity against Klebsiella pneumoniae ATCC 1813 assessed as reduction in bacterial growth incubated for 24 hrs followed by replating on MH broth and further incubated for 24 hrs by CLSI broth microdilution method; assay type: functional
[11] = system: Staphylococcus haemolyticus; experiment: Antibacterial activity against methicillin- resistant Staphylococcus haemolyticus 837 assessed as reduction in bacterial growth incubated for 24 hrs by CLSI broth microdilution method; assay type: functional
Staphylococcus aureus [12] = experiment: Antibacterial activity against methicillin- resistant Staphylococcus aureus 967 clinical isolate assessed as reduction in bacterial growth incubated for 24 hrs by CLSI broth microdilution method; assay type: functional
[13] = system: Staphylococcus epidermidis; experiment: Antibacterial activity against Staphylococcus epidermidis assessed as reduction in bacterial growth incubated for 24 hrs by CLSI broth microdilution method; assay type: functional
[14] = Antibacterial activity against […] resistant Moraxella sp.764 clinical isolate assessed as reduction in bacterial growth incubated for 24 hrs by CLSI broth microdilution method; assay type: functional; conditions: Moraxella catarrhalis
[15] = system: Staphylococcus epidermidis; experiment: Bactericidal activity against Staphylococcus epidermidis assessed as reduction in bacterial growth incubated for 24 hrs followed by replating on MH broth and further incubated for 24 hrs by CLSI broth microdilution method; assay type: functional
Escherichia coli [16] = experiment: Antibacterial activity against Escherichia coli ATCC 25922 assessed as reduction in bacterial growth incubated for 24 hrs by CLSI broth microdilution method; assay type: functional
Acinetobacter [17] = experiment: Antibacterial activity against […] resistant Acinetobacter spp. clinical isolate 5 assessed as reduction in bacterial growth incubated for 24 hrs by CLSI broth microdilution method; assay type: functional
Staphylococcus aureus [18] = experiment: Bactericidal activity against Staphylococcus aureus ATCC 29213 assessed as reduction in bacterial growth incubated for 24 hrs followed by replating on MH broth and further incubated for 24 hrs by CLSI broth microdilution method; assay type: functional; conditions: time 48 hrs
Acinetobacter [19] = experiment: Antibacterial activity against […] resistant Acinetobacter spp. clinical isolate 1 assessed as reduction in bacterial growth incubated for 24 hrs by CLSI broth microdilution method; assay type: functional
Acinetobacter [20] = experiment: Antibacterial activity against […] resistant Acinetobacter spp. clinical isolate 3 assessed as reduction in bacterial growth incubated for 24 hrs by CLSI broth microdilution method; assay type: functional
[21] = system: Staphylococcus intermedius; experiment: Antibacterial activity against methicillin- resistant Staphylococcus intermedius 1143 clinical isolate assessed as reduction in bacterial growth incubated for 24 hrs by CLSI broth microdilution method; assay type: functional
Klebsiella sp. [22] = experiment: Antibacterial activity against […] resistant Klebsiella sp. clinical isolate 11 assessed as reduction in bacterial growth incubated for 24 hrs by CLSI broth microdilution method; assay type: functional
Klebsiella sp. [23] = experiment: Antibacterial activity against […] resistant Klebsiella sp. clinical isolate 12 assessed as reduction in bacterial growth incubated for 24 hrs by CLSI broth microdilution method; assay type: functional
Pseudomonas aeruginosa [24] = experiment: Bactericidal activity against Pseudomonas aeruginosa ATCC 27853 assessed as reduction in bacterial growth incubated for 24 hrs followed by replating on MH broth and further incubated for 24 hrs by CLSI broth microdilution method; assay type: functional
Bacillus subtilis [25] = experiment: Bactericidal activity against Bacillus subtilis 168 assessed as reduction in bacterial growth incubated for 24 hrs followed by replating on MH broth and further incubated for 24 hrs by CLSI broth microdilution method; assay type: functional; conditions: Bacillus subtilis, 168, 24 h
Bacillus subtilis [26] = experiment: Antibacterial activity against Bacillus subtilis 168 assessed as reduction in bacterial growth incubated for 24 hrs by CLSI broth microdilution method; assay type: functional
[27] = Selectivity index, ratio of CC50 for human HSF cells to MIC for Klebsiella pneumoniae ATCC 1813; assay type: toxicity
[28] = Selectivity index, ratio of CC50 for human HSF cells to MIC for Pseudomonas aeruginosa ATCC 27853; assay type: toxicity
[29] = Pseudomonas aeruginosa, ATCC 27853, 24 h, read-out: MIC
[30] = Staphylococcus epidermidis, read-out: MIC
[31] = Staphylococcus epidermidis, read-out: MBC
[32] = Staphylococcus aureus, ATCC 29213, read-out: MBC
[33] = Bacillus subtilis, 168, 24 h, read-out: MIC

SMILES	MIC [1] [mg/L]	MIC (Proteus sp.) [mg/L]	MIC (Staphylococcus aureus [2]) [mg/L]	MIC (Staphylococcus aureus [5]) [mg/L]	MIC (Staphylococcus aureus [6]) [mg/L]	MIC (Pseudomonas) [mg/L]	MBC (Escherichia coli [7]) [mg/L]	MIC [8] [mg/L]	MBC (Klebsiella pneumoniae [10]) [mg/L]	MIC [11] [mg/L]	MIC (Staphylococcus aureus [12]) [mg/L]	MIC [14] [mg/L]	MBC [15, 31] [mg/L]	MIC (Acinetobacter [17]) [mg/L]	MBC (Staphylococcus aureus [18]; [32]) [mg/L]	MIC (Acinetobacter [19]) [mg/L]	MIC (Acinetobacter [20]) [mg/L]	MIC [21] [mg/L]	MIC (Klebsiella sp. [22]) [mg/L]	MIC (Klebsiella sp. [23]) [mg/L]	also measured
CC(C)(C)c1cc2c(OCCCNC(=N)N)c(c1)Cc1cc(C(C)(C)C)cc(c1OCCCNC(=N)N)Cc1cc(C(C)(C)C)cc(c1OCCCNC(=N)N)Cc1cc(C(C)(C)C)cc(c1OCCCNC(=N)N)C2.O=C(O)C(F)(F)F.O=C(O)C(F)(F)F.O=C(O)C(F)(F)F.O=C(O)C(F)(F)F																					MIC (Enterococcus faecalis): 4 mg/L and 8 mg/L; MIC (Enterococcus faecalis; Enterococcus faecalis, ATCC 29212, read-out: MIC): 8 mg/L
CC(C)(C)c1cc2c(OCC(=O)NCCC[N+](C)(C)Cc3ccccc3)c(c1)Sc1cc(C(C)(C)C)cc(c1OCC(=O)NCCC[N+](C)(C)Cc1ccccc1)Sc1cc(C(C)(C)C)cc(c1OCC(=O)NCCC[N+](C)(C)Cc1ccccc1)Sc1cc(C(C)(C)C)cc(c1OCC(=O)NCCC[N+](C)(C)Cc1ccccc1)S2.[Cl-].[Cl-].[Cl-].[Cl-]	64	> 64	64	16	64	64	64	64	32	64	64	64	32	64	64	64	64	16	> 64	64	MIC (Pseudomonas aeruginosa [3]; [29]): > 64 mg/L; MIC (Klebsiella pneumoniae [4]; 24 h): >64 mg/L; MIC (Klebsiella pneumoniae [4]; Klebsiella pneumoniae, ATCC 1813, 24 h, read-out: MIC): 32 mg/L; MIC (Staphylococcus aureus [9]): 4 mg/L; MIC (Staphylococcus aureus [9]; Staphylococcus aureus, ATCC 29213, 24 h, read-out: MIC): 4 mg/L; MIC [13]: 2 mg/L; MIC [13, 30]: 4 mg/L; MBC [15]: 16 mg/L; MIC (Escherichia coli [16]; 24 h): 32 mg/L; MIC (Escherichia coli [16]; Escherichia coli, ATCC 25922, 24 h, read-out: MIC): > 64 mg/L; MBC (Staphylococcus aureus [18]): 64 mg/L
CCCCCCCC[N+](C)(C)CCCNC(=O)COc1c2cc(C(C)(C)C)cc1Sc1cc(C(C)(C)C)cc(c1OCC(=O)NCCC[N+](C)(C)CCCCCCCC)Sc1cc(C(C)(C)C)cc(c1OCC(=O)NCCC[N+](C)(C)CCCCCCCC)Sc1cc(C(C)(C)C)cc(c1OCC(=O)NCCC[N+](C)(C)CCCCCCCC)S2.[Cl-].[Cl-].[Cl-].[Cl-]	16	64	16	4	16	16	16	16	32	16	16	16	2	16	1	8	16	2	16	16	MBC (Pseudomonas aeruginosa [24]): 32 mg/L; MBC (Bacillus subtilis [25]): 16 mg/L; MIC (Bacillus subtilis [26]; 24 h): 4 mg/L; MIC (Bacillus subtilis [26]; [33]): 2 mg/L
CCCCCCCCCC[N+](C)(C)CCCNC(=O)COc1c2cc(C(C)(C)C)cc1Sc1cc(C(C)(C)C)cc(c1OCC(=O)NCCC[N+](C)(C)CCCCCCCCCC)Sc1cc(C(C)(C)C)cc(c1OCC(=O)NCCC[N+](C)(C)CCCCCCCCCC)Sc1cc(C(C)(C)C)cc(c1OCC(=O)NCCC[N+](C)(C)CCCCCCCCCC)S2.[Cl-].[Cl-].[Cl-].[Cl-]	> 64	> 64	32	4	32	> 64	64	> 64	32	32	32	> 64	16	> 64	8	> 64	> 64	2	> 64	> 64	MBC (Pseudomonas aeruginosa [24]): > 64 mg/L; MIC (Pseudomonas aeruginosa [3]; 24 h): >64 mg/L; MIC (Pseudomonas aeruginosa [3]; [29]): 64 mg/L; Ratio [27]: 1 and 3; Ratio [28]: < 0.5; selectivity ratio ([28]; HSF cells): 0.5; MBC (Bacillus subtilis [25]): 32 mg/L; MIC [13]: 4 mg/L; MIC [13, 30]: 8 mg/L; MIC (Bacillus subtilis [26]): 4 mg/L; MIC (Bacillus subtilis [26]; [33]): 4 mg/L
